In the assay the test system is P388 leukemia ip, CD2F1 mice, survival T/C. Description: NCI In Vivo Anticancer Drug Screen. Data for tumor model P388 Leukemia (intraperitoneal) in CD2F1 (CDF1) mice. The note with it: endpoint: median survival time, higher = longer survival. In a few lines: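 Mice carrying the transplanted tumor received test compound or vehicle. Survival was recorded in each group, and the value is the treated-group measurement divided by that of the vehicle-treated control group.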

The mark [1] stands for this setting: dose: 50.0 mg/kg/injection, schedule: Q01DX005 (ip), vehicle: Klucel (hydroxypropylcellulose) (HPC).
[2] abbreviates: dose: 100.0 mg/kg/injection, schedule: Q01DX005 (ip), vehicle: Klucel (hydroxypropylcellulose) (HPC).
Setting [3] is: dose: 200.0 mg/kg/injection, schedule: Q01DX005 (ip), vehicle: Klucel (hydroxypropylcellulose) (HPC).
Setting [4] is: dose: 100.0 mg/kg/injection, schedule: Q04DX003 (ip), vehicle: saline with Tween-80.
[5] abbreviates: dose: 100.0 mg/kg/injection, schedule: Q04DX002 (ip), vehicle: saline with Tween-80.
The mark [6] stands for this setting: dose: 50.0 mg/kg/injection, schedule: Q01DX005 (ip), vehicle: saline with Tween-80.
Where [7] appears, read: dose: 100.0 mg/kg/injection, schedule: Q01DX005 (ip), vehicle: saline with Tween-80.
Where [8] appears, read: dose: 100.0 mg/kg/injection, schedule: Q04DX003 (ip), vehicle: saline.

Toxic doses and inconclusive results are not listed.

With `CC(C)=NNc1cc(N)nc2c1ncn2C1OC(CO)C(O)C1O` (stereo not drawn), the T/C is 97 % of control (dose: 12.5 mg/kg/injection, schedule: Q01DX005 (ip), vehicle: water); 94 % of control (dose: 25.0 mg/kg/injection, schedule: Q01DX005 (ip), vehicle: water); 98 % of control (dose: 50.0 mg/kg/injection, schedule: Q01DX005 (ip), vehicle: water); 96 % of control (dose: 100.0 mg/kg/injection, schedule: Q01DX005 (ip), vehicle: water); 106 % of control (dose: 200.0 mg/kg/injection, schedule: Q01DX005 (ip), vehicle: water).
As to `O=C(Nc1cccc2ccccc12)OC1CC2CCC1C2Cl` (stereo not drawn), the T/C by setting is: (dose: 25.0 mg/kg/injection, schedule: Q01DX009 (ip), vehicle: other) 93 % of control; (dose: 50.0 mg/kg/injection, schedule: Q01DX009 (ip), vehicle: other) 87 % of control; (dose: 100.0 mg/kg/injection, schedule: Q01DX009 (ip), vehicle: other) 87 % of control; (dose: 200.0 mg/kg/injection, schedule: Q01DX009 (ip), vehicle: other) 88 % of control; (dose: 400.0 mg/kg/injection, schedule: Q01DX009 (ip), vehicle: other) 91 % of control.
With `S=C(Nc1ccc2c(c1)OCO2)SCc1ccc(Cl)c(Cl)c1`, the T/C was 91 % of control (dose: 12.5 mg/kg/injection, schedule: Q01DX009 (ip), vehicle: Klucel (hydroxypropylcellulose) (HPC)); 105 % of control (dose: 25.0 mg/kg/injection, schedule: Q01DX009 (ip), vehicle: Klucel (hydroxypropylcellulose) (HPC)); 107 % of control (dose: 50.0 mg/kg/injection, schedule: Q01DX009 (ip), vehicle: Klucel (hydroxypropylcellulose) (HPC)); 106 % of control (dose: 50.0 mg/kg/injection, schedule: Q01DX009 (ip), vehicle: saline); 103 % of control (dose: 50.0 mg/kg/injection, schedule: Q01DX009 (ip), vehicle: suspension in saline); 108 % of control (dose: 100.0 mg/kg/injection, schedule: Q01DX009 (ip), vehicle: saline). Also, the T/C reads like this: (dose: 100.0 mg/kg/injection, schedule: Q01DX009 (ip), vehicle: suspension in saline) 93 % of control; (dose: 200.0 mg/kg/injection, schedule: Q01DX009 (ip), vehicle: saline) 118 % of control; (dose: 200.0 mg/kg/injection, schedule: Q01DX009 (ip), vehicle: suspension in saline) 98 % of control.
As for `CN(C)c1ccc(-c2nc(=O)[nH]c(=O)s2)cc1`, the T/C is, setting by setting: (dose: 50.0 mg/kg/injection, schedule: Q01DX009 (ip), vehicle: saline with Tween-80) 102 % of control; (dose: 100.0 mg/kg/injection, schedule: Q01DX009 (ip), vehicle: saline with Tween-80) 100 % of control; (dose: 200.0 mg/kg/injection, schedule: Q01DX009 (ip), vehicle: saline with Tween-80) 98 % of control.
With `Cc1nc2ncn(-c3ccccc3)c2c(=O)n1-c1ccccc1`, the T/C reads like this: under setting [1], 100 % of control; under setting [2], 100 % of control; under setting [3], 100 % of control.
Regarding `O=C(O)CCS(=O)(=O)CCC(=O)O`, the T/C was 100 % of control under setting [4] and 104 % of control (dose: 200.0 mg/kg/injection, schedule: Q04DX003 (ip), vehicle: saline with Tween-80).
Regarding `O=C(O)/C=C/c1c(-c2ccccc2)sc2ccccc2c1=O`, the T/C reads like this: under setting [5], 93 % of control; (dose: 200.0 mg/kg/injection, schedule: Q04DX002 (ip), vehicle: saline with Tween-80) 97 % of control; (dose: 400.0 mg/kg/injection, schedule: Q04DX002 (ip), vehicle: saline with Tween-80) 97 % of control.
For `CCCCN(c1ccc(Br)cc1)c1nc(N)nc(N)c1N=O`, the T/C is 103 % of control (dose: 25.0 mg/kg/injection, schedule: Q01DX005 (ip), vehicle: Klucel (hydroxypropylcellulose) (HPC)); 99 % of control under setting [1]; 102 % of control under setting [2]; 98 % of control under setting [3].
In the case of `COc1cccc(/C=C/C(C)=N/NC(N)=S)c1`, the T/C by setting is: (dose: 6.25 mg/kg/injection, schedule: Q01DX005 (ip), vehicle: saline with Tween-80) 107 % of control; (dose: 12.5 mg/kg/injection, schedule: Q01DX005 (ip), vehicle: saline with Tween-80) 107 % of control; (dose: 25.0 mg/kg/injection, schedule: Q01DX005 (ip), vehicle: saline with Tween-80) 111 % of control; under setting [6], 118 % of control; under setting [7], 101 % of control.
On to `CSc1nc(NC2OC(COC(C)=O)C(OC(C)=O)C(OC(C)=O)C2OC(C)=O)c(C(=O)CCl)c(=O)n1C` (stereo not drawn), for which the T/C is 102 % of control under setting [6]; 96 % of control under setting [7]; 92 % of control (dose: 200.0 mg/kg/injection, schedule: Q01DX005 (ip), vehicle: saline with Tween-80).
In the case of `CCOC(=O)c1cnc2c(cnn2CC)c1NN=C(C)C`, the T/C was 109 % of control (dose: 66.0 mg/kg/injection, schedule: Q04DX003 (ip), vehicle: saline); 109 % of control under setting [8]; 104 % of control (dose: 150.0 mg/kg/injection, schedule: Q04DX003 (ip), vehicle: saline).
Consider `Nc1ccc(SCCOC(c2ccccc2)(c2ccccc2)c2ccccc2)cc1`, for which the T/C under setting [8] is 101 % of control; the T/C (dose: 200.0 mg/kg/injection, schedule: Q04DX003 (ip), vehicle: saline) was 99 % of control; the T/C (dose: 400.0 mg/kg/injection, schedule: Q04DX003 (ip), vehicle: saline) is 102 % of control.
Regarding `Cc1c2oc3c(C)ccc(C(=O)OCCN4CCOCC4)c3nc-2c(C(=O)OCCN2CCOCC2)c(N)c1=O`, the T/C reads like this: (dose: 3.13 mg/kg/injection, schedule: Q01DX009 (ip), vehicle: saline with Tween-80) 112 % of control; (dose: 6.25 mg/kg/injection, schedule: Q01DX009 (ip), vehicle: saline with Tween-80) 110 % of control; (dose: 12.5 mg/kg/injection, schedule: Q01DX009 (ip), vehicle: saline with Tween-80) 119 % of control; (dose: 25.0 mg/kg/injection, schedule: Q01DX009 (ip), vehicle: saline with Tween-80) 111 % of control.
Take `COC(=O)C12CC3(C)OC1(C)OC(=O)C2(Cc1ccccc1)N3C(C)=O` (stereo not drawn): the T/C is 104 % of control (dose: 60.0 mg/kg/injection, schedule: Q01DX005 (ip), vehicle: saline with Tween-80); 104 % of control (dose: 120.0 mg/kg/injection, schedule: Q01DX005 (ip), vehicle: saline with Tween-80); 97 % of control (dose: 240.0 mg/kg/injection, schedule: Q01DX005 (ip), vehicle: saline with Tween-80).
As for `C/C(=N\NC(N)=Nc1ccc(Cl)cc1)c1ccc(Cl)c(Cl)c1`, the T/C was 99 % of control (dose: 25.0 mg/kg/injection, schedule: Q04DX002 (ip), vehicle: saline with Tween-80); 102 % of control (dose: 50.0 mg/kg/injection, schedule: Q04DX002 (ip), vehicle: saline with Tween-80); 102 % of control under setting [5].
On to `CCC(c1ccc(OC)cc1)C(NC(=S)Nc1ccc(Br)cc1)c1ccc(OC)cc1` (stereo not drawn), for which the T/C reads like this: (dose: 100.0 mg/kg/injection, schedule: Q01DX001 (ip), vehicle: saline with Tween-80) 96 % of control; (dose: 200.0 mg/kg/injection, schedule: Q01DX001 (ip), vehicle: saline with Tween-80) 99 % of control; (dose: 400.0 mg/kg/injection, schedule: Q01DX001 (ip), vehicle: saline with Tween-80) 93 % of control.
As for `COc1cc(C2c3cc4c(cc3C(O)C(CO)C2CO)OCO4)cc(OC)c1OC` (stereo not drawn), the T/C reads like this: (dose: 11.0 mg/kg/injection, schedule: Q01DX009 (ip), vehicle: saline with Tween-80) 118 % of control; (dose: 25.0 mg/kg/injection, schedule: Q04DX003 (ip), vehicle: saline with Tween-80) 115 % of control; (dose: 37.5 mg/kg/injection, schedule: Q01DX009 (ip), vehicle: saline with Tween-80) 150 % of control; under setting [1], 103 % of control; under setting [2], 97 % of control; (dose: 100.0 mg/kg/injection, schedule: Q01DX009 (ip), vehicle: saline sonified) 165 % of control. Besides, the T/C reads like this: under setting [4], 155 % of control; under setting [3], 94 % of control; (dose: 200.0 mg/kg/injection, schedule: Q01DX009 (ip), vehicle: saline sonified) 195 % of control; (dose: 264.0 mg/kg/injection, schedule: Q04DX003 (ip), vehicle: saline with Tween-80) 154 % of control; (dose: 400.0 mg/kg/injection, schedule: Q01DX009 (ip), vehicle: saline sonified) 95 % of control; (dose: 400.0 mg/kg/injection, schedule: Q04DX003 (ip), vehicle: saline with Tween-80) 163 % of control.

For the origin of these results see PubChem BioAssay AID330 (DTP/NCI, 2004).
